The values below come from patent US20260209249A1, “NOVEL TRICYCLIC COMPOUND AS KRAS G12D INHIBITOR, AND USE THEREOF” (SK Biopharmaceuticals Co., priority 2022, published 2026).

Test [1] deals with T1, GDP-KRAS G12D mutant protein (Homo sapiens, UniProt P01116, G12D).
T1 construct: purchased Daegu Gyeongbuk Medical Innovation Foundation (DGMIF), made to order
As to the kind of experiment: Differential scanning fluorimetry (DSF) binding affinity to GDP-KRAS G12D mutant protein. Particulars: DSF thermal shift, 10 μM compound, 4 μg KRAS protein. Put shortly:
(§1)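 Each sample held 4 μg recombinant KRAS G12D (GDP- or GppNHp-bound) and 10 μM compound, incubated 30 min at room temperature before adding 2× SYPRO Orange. The GDP form was run in kit buffer, the GppNHp form in 50 mM HEPES pH 7.5. Melt was 25–99 °C at 0.05 °C/s (580/623 nm), reported as ΔTm versus no compound.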

The test system of test [2] is KRAS G12D mutant pancreatic cancer cell line AsPC-1. Description: Cell viability assay using KRAS G12D mutant cells (AsPC-1, 3D culture, celltiter-glo 3D). Type of test: cell-based. Particulars: Homo sapiens, ASPC1, 5th day after compound treatment. In short, it runs like this: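 AsPC-1 cells in 3D culture, 1000 cells/well, treated next day with 1/5 serial dilutions from 10 μM or 50 μM, 1:1 v/v. Viability read by CellTiter-Glo 3D on day 5, normalized to DMSO (100%) and untreated backgrounds; IC50 from four-parameter sigmoidal fit.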

The test system of test [3] is ERK phosphorylation (pERK) induced by KRAS G12D mutation. Description: Inhibitory activity against ERK phosphorylation (pERK) induced by KRAS G12D mutation, immunofluorescence assay in AsPC-1 cells. In kind it is cell-based. Particulars: Homo sapiens, ASPC1, 3 h drug treatment, pERK (Thr202/Tyr204) signal normalized to DAPI. In short, it runs like this: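 AsPC-1 cells attached 16 h, then treated 3 h with 3-fold dilutions from 10 μM top. Fixed, permeabilized, immunostained for pERK (Thr202/Tyr204) with Alexa 488 secondary; high-content imaging, signal normalized to DAPI and to DMSO, IC50 from four-parameter fit.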

The target in test [4] is T2, GppNHp-KRAS G12D mutant protein (Homo sapiens, UniProt P01116, G12D).
T2 construct: purchased Daegu Gyeongbuk Medical Innovation Foundation (DGMIF), made to order
Description: Differential scanning fluorimetry (DSF) binding affinity to GppNHp-KRAS G12D mutant protein. Particulars: DSF thermal shift, 10 μM compound, 4 μg KRAS protein, 50 mM HEPES (pH 7.5). Put shortly: as §1

Turning to `C#Cc1c(F)ccc2cc(N)cc(-c3c(F)c4nc(OC[C@@]56CCCN5C[C@H](F)C6)nc(N5C[C@H]6CC[C@@H](C5)N6)c4c4cc(C)oc34)c12` [Example 57, 4-(1-((1R,5S)-3,8-diazabicyclo[3.2.1]octan-3-yl)-5-fluoro-3-(((2R,7aS)-2-fluorotetrahydro-1H-pyrrolizin-7a(5H)-yl)methoxy)-8-methylfuro[3,2-f]quinazolin-6-yl)-5-ethynyl-6-fluoronaphthalen-2-amine], in test [1], the “GDP-KRAS G12D (ΔTmD, ° C.)” value came to 8.57 °C. In addition, the values for the IC50 in test [2] and in test [3] were 101 nM and 167 nM, respectively. The “GppNHp-KRAS G12D (ΔTmD, ° C.)” value in test [4] turned out to be 5.76 °C.

`C#Cc1c(F)ccc2cc(N)cc(-c3cc4nc(OC[C@@]56CCCN5C/C(=C\F)C6)nc(N5[C@@H]6CC[C@H]5CNC6)c4n4ccnc34)c12` [Example 38, 4-(1-((1R,5S)-3,8-diazabicyclo[3.2.1]octan-8-yl)-3-(((S,Z)-2-(fluoromethylene)tetrahydro-1H-pyrrolizin-7a(5H)-yl)methoxy)imidazo[1′,2′:1,6]pyrido[3,2-d]pyrimidin-6-yl)-5-ethynyl-6-fluoronaphthalen-2-amine]: in test [1], the “GDP-KRAS G12D (ΔTmD, ° C.)” value was found to be 9.61 °C. For the same molecule, the figures for the IC50 in test [2] and in test [3] were 12 nM and 15 nM, respectively. Moreover, the “GppNHp-KRAS G12D (ΔTmD, ° C.)” value in test [4] was 6.65 °C.

Regarding `C#Cc1c(F)ccc2cc(O)cc(-c3cc4nc(OC[C@@]56CCCN5C[C@H](F)C6)nc(N5C[C@H]6CC[C@@H](C5)N6)c4n4ccnc34)c12` [Example 2, 4-(1-((1 R,5S)-3,8-diazabicyclo[3.2.1]octan-3-yl)-3-(((2R,7aS)-2-fluorotetrahydro-1H-pyrrolizin-7a(5H)-yl)methoxy)imidazo[1′,2′:1,6]pyrido[3,2-d]pyrimidin-6-yl)-5-ethynyl-6-fluoronaphthalen-2-ol], the “GDP-KRAS G12D (ΔTmD, ° C.)” value in test [1] was 9.91 °C. Moreover, the IC50 worked out at 226 nM in test [2] and 169 nM in test [3]. Also, the “GppNHp-KRAS G12D (ΔTmD, ° C.)” value in test [4] was 5.61 °C.

Regarding `CCc1c(F)ccc2cc(O)cc(-c3c(F)c4nc(OC[C@@]56CCCN5C[C@H](F)C6)nc(N5C[C@H]6CC[C@@H](C5)N6)c4c4cn(C)nc34)c12` [Example 93, 4-(9-((1R,5S)-3,8-diazabicyclo[3.2.1]octan-3-yl)-5-fluoro-7-(((2R,7aS)-2-fluorotetrahydro-1H-pyrrolizin-7a(5H)-yl)methoxy)-2-methyl-2H-pyrazolo[4,3-n]quinazolin-4-yl)-5-ethyl-6-fluoronaphthalen-2-ol], in test [1], the “GDP-KRAS G12D (ΔTmD, ° C.)” value came to 14.20 °C. The IC50 amounted to 38 nM in test [2] and 16 nM in test [3]. For the same molecule, the “GppNHp-KRAS G12D (ΔTmD, ° C.)” value in test [4] came out at 8.72 °C.

For `C#Cc1c(F)ccc2cc(O)cc(-c3c(F)c4nc(OC[C@@]56CC[C@@H](COC)N5CC(=C)C6)nc(N5C[C@H]6CC[C@@H](C5)N6)c4c4cn(C)nc34)c12` [Example 96, 4-(9-((1R,5S)-3,8-diazabicyclo[3.2.1]octan-3-yl)-5-fluoro-7-(((5S,7aS)-5-(methoxymethyl)-2-methylenetetrahydro-1H-pyrrolizin-7a(5H)-yl)methoxy)-2-methyl-2H-pyrazolo[4,3-n]quinazolin-4-yl)-5-ethynyl-6-fluoronaphthalen-2-ol], the “GDP-KRAS G12D (ΔTmD, ° C.)” value in test [1] worked out at 15.09 °C. The values for the IC50 in test [2] and in test [3] were 11 nM and 20 nM, respectively. The “GppNHp-KRAS G12D (ΔTmD, ° C.)” value in test [4] stood at 10.64 °C.

On to `C#Cc1c(F)ccc2cc(O)cc(-c3c(F)c4nc(OC[C@]56CC(=C)CN5C[C@@H](F)C6)nc(N5C[C@H]6CC[C@@H](C5)N6)c4c4cc(C)oc34)c12` [Example 65, 4-(1-((1R,5S)-3,8-diazabicyclo[3.2.1]octan-3-yl)-5-fluoro-3-(((2S,7aR)-2-fluoro-6-methylenetetrahydro-1H-pyrrolizin-7a(5H)-yl)methoxy)-8-methylfuro[3,2-f]quinazolin-6-yl)-5-ethynyl-6-fluoronaphthalen-2-ol], for which, in test [1], the “GDP-KRAS G12D (ΔTmD, ° C.)” value came out at 14.23 °C. The results for the IC50 in test [2] and in test [3] were 5 nM and 4 nM, respectively. The “GppNHp-KRAS G12D (ΔTmD, ° C.)” value in test [4] turned out to be 8.60 °C.

`Cc1cc2c(o1)c(-c1cc(O)cc3ccccc13)cc1nc(OC[C@@]34CCCN3C[C@H](F)C4)nc(N3C[C@H]4CC[C@@H](C3)N4)c12` [Example 41, 4-(1-((1R,5S)-3,8-diazabicyclo[3.2.1]octan-3-yl)-3-(((2R,7aS)-2-fluorotetrahydro-1H-pyrrolizin-7a(5H)-yl)methoxy)-8-methylfuro[3,2-f]quinazolin-6-yl)naphthalen-2-ol]: in test [1], the “GDP-KRAS G12D (ΔTmD, ° C.)” value is 5.46 °C. The figures for the IC50 in test [2] and in test [3] were 1020 nM and 899 nM, respectively. For the same molecule, the “GppNHp-KRAS G12D (ΔTmD, ° C.)” value in test [4] was found to be 0.87 °C.

Consider `C#Cc1c(F)ccc2cc(O)cc(-c3cc4nc(OC[C@@]56CCCN5C/C(=C\F)C6)nc(N5C[C@H]6CC[C@@H](C5)N6)c4n4ccnc34)c12` [Example 29, 4-(1-((1R,5S)-3,8-diazabicyclo[3.2.1]octan-3-yl)-3-(((S,Z)-2-(fluoromethylene)tetrahydro-1H-pyrrolizin-7a(5H)-yl)methoxy)imidazo[1′,2′:1,6]pyrido[3,2-d]pyrimidin-6-yl)-5-ethynyl-6-fluoronaphthalen-2-ol], for which the “GDP-KRAS G12D (ΔTmD, ° C.)” value in test [1] worked out at 12.01 °C. Moreover, the IC50 in test [2] was 19 nM; in test [3], 15 nM. The “GppNHp-KRAS G12D (ΔTmD, ° C.)” value in test [4] amounted to 6.82 °C.

With `C#Cc1c(F)ccc2cc(O)cc(-c3c(F)c4nc(OC[C@@]56CCCN5CC(=C(F)F)C6)nc(N5C[C@H]6CC[C@@H](C5)N6)c4c4cn(C)nc34)c12` [Example 90, 4-(9-((1R,5S)-3,8-diazabicyclo[3.2.1]octan-3-yl)-7-(((S)-2-(difluoromethylene)tetrahydro-1H-pyrrolizin-7a(5H)-yl)methoxy)-5-fluoro-2-methyl-2H-pyrazolo[4,3-f]quinazolin-4-yl)-5-ethynyl-6-fluoronaphthalen-2-ol], the “GDP-KRAS G12D (ΔTmD, ° C.)” value in test [1] is 16.27 °C. In addition, the IC50 was 4 nM in test [2] and 5 nM in test [3]. Besides, the “GppNHp-KRAS G12D (ΔTmD, ° C.)” value in test [4] amounted to 11.38 °C.

On to `C#Cc1c(F)ccc2cc(N)cc(-c3cc4nc(OC[C@@]56CCCN5C/C(=C\F)C6)nc(N5C[C@H]6CC[C@@H](C5)N6)c4c4cn(C)nc34)c12` [Example 74, 4-(9-((1R,5S)-3,8-diazabicyclo[3.2.1]octan-3-yl)-7-(((S,Z)-2-(fluoromethylene)tetrahydro-1H-pyrrolizin-7a(5H)-yl)methoxy)-2-methyl-2H-pyrazolo[4,3-f]quinazolin-4-yl)-5-ethynyl-6-fluoronaphthalen-2-amine], for which the “GDP-KRAS G12D (ΔTmD, ° C.)” value in test [1] stood at 7.82 °C. Besides, the values for the IC50 in test [2] and in test [3] were 110 nM and 143 nM, respectively. Moreover, the “GppNHp-KRAS G12D (ΔTmD, ° C.)” value in test [4] was found to be 5.30 °C.

On to `C#Cc1c(F)ccc2cc(O)cc(-c3cc4nc(OCC5(CN6C[C@@H]7C[C@H]6CO7)CC5)nc(N5C[C@H]6CC[C@@H](C5)N6)c4n4ccnc34)c12` [Example 12, 4-(3-((1-(((1S,4S)-2-oxa-5-azabicyclo[2.2.1]heptan-5-yl)methyl)cyclopropyl)methoxy)-1-((1 R,5S)-3,8-diazabicyclo[3.2.1]octan-3-yl)imidazo[1′,2′:1,6]pyrido[3,2-d]pyrimidin-6-yl)-5-ethynyl-6-fluoronaphthalen-2-ol], for which the “GDP-KRAS G12D (ΔTmD, ° C.)” value in test [1] came to 9.61 °C. The figures for the IC50 in test [2] and in test [3] were 975 nM and 1060 nM, respectively. Moreover, the “GppNHp-KRAS G12D (ΔTmD, ° C.)” value in test [4] stood at 2.65 °C.

Take `C#Cc1c(F)ccc2cc(N)cc(-c3c(F)c4nc(OC[C@@]56CCCN5C[C@H](F)C6)nc(N5C[C@H]6CC[C@@H](C5)N6)c4c4cn(C)nc34)c12` [Example 81, 4-(9-((1R,5S)-3,8-diazabicyclo[3.2.1]octan-3-yl)-5-fluoro-7-(((2R,7aS)-2-fluorotetrahydro-1H-pyrrolizin-7a(5H)-yl)methoxy)-2-methyl-2H-pyrazolo[4,3-n]quinazolin-4-yl)-5-ethynyl-6-fluoronaphthalen-2-amine]: the “GDP-KRAS G12D (ΔTmD, ° C.)” value in test [1] was determined as 10.04 °C. The IC50 was determined as 280 nM in test [2] and 81 nM in test [3]. Also, in test [4], the “GppNHp-KRAS G12D (ΔTmD, ° C.)” value turned out to be 6.66 °C.

Regarding `C#Cc1c(F)ccc2cc(O)cc(-c3cc4nc(OCC5(CN6CCC7(CC6)CC7(F)F)CC5)nc(N5C[C@H]6CC[C@@H](C5)N6)c4n4ccnc34)c12` [Example 9, 4-(1-((1R,5S)-3,8-diazabicyclo[3.2.1]octan-3-yl)-3-((1-((1,1-difluoro-6-azaspiro[2.5]octan-6-yl)methyl)cyclopropyl)methoxy)imidazo[1′,2′:1,6]pyrido[3,2-d]pyrimidin-6-yl)-5-ethynyl-6-fluoronaphthalen-2-ol], the “GDP-KRAS G12D (ΔTmD, ° C.)” value in test [1] amounted to 8.87 °C. In addition, the IC50 in test [2] was 50 nM; in test [3], 165 nM. Further, the “GppNHp-KRAS G12D (ΔTmD, ° C.)” value in test [4] was 3.39 °C.
